According to patent publication US11413278B2, “Compounds and methods for promoting stress resistance” (priority 2015, dated 2022):
Read-outs that look alike come from different tables or passages of the source.

Experiments:
[1] = system: phosphorylated γH2A.X and TP53BP1; assay: DNA damage marker analysis (immuno-staining); settings: for activity at 10 µM: Homo sapiens, WI-38, 24 h; for P = Potential DNA-damaging / R = Potential DNA damaging: human, 24 h
In short: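 WI-38 cells were cultured 24 h, then treated with compounds for 24 h; H2O2 (700 μM, 3 h) and doxorubicin (300 nM, 24 h) served as DNA-damage controls. After fixation, cells were immunostained for phospho-γH2A.X (Ser-139) and phospho-TP53BP1 (Ser-1778), counterstained with DAPI, and imaged by automated high-content microscopy.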

C. elegans = C. elegans lifespan assays (liquid and plate); type: in vivo, Caenorhabditis elegans; settings: for ILS at 60 µM / ILS at 66 µM: Caenorhabditis elegans; for O = Life span- extending scores in worms: score scale 0 to 2, 4 to 6 independent trials; for M = Lifespan-extending scores in worms: summary score
WI-38 cells [2] = assay: Long-term effects on cell viability (5 days, ATP; morphology, PI imaging); type: cell-based; settings: 10 μM; for Luminescence signal for ATP measurement, day-1 Average / Luminescence signal for ATP measurement, day-2 Average / Luminescence signal for ATP measurement, day-3 Average / Luminescence signal for ATP measurement, day-4 Average / Luminescence signal for ATP measurement, day-5 Average: n = 6; for viability at 10 µM: Homo sapiens, WI-38, 120 h, DMSO ctrl = 100.0%, read-out: ATP luminescence by day-5 normalized; for Luminescence signal for ATP measurement, day-5 Average / viability at 10 µM: day-5;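 for Luminescence signal for ATP measurement, day-2 Average: compounds at 10 µM with ATP read daily over 5 days of treatment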;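 for Luminescence signal for ATP measurement, day-3 Average: compounds at 10 µM with ATP read daily over 5 days of treatment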;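 for Luminescence signal for ATP measurement, day-4 Average: compounds at 10 µM with ATP read daily over 5 days of treatment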;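 for Luminescence signal for ATP measurement, day-5 Average: compounds at 10 µM with ATP read daily over 5 days of treatment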
FOXO3 = FOXO3 siRNA knockdown: dependency for H2O2-resistance; type: cell-based, human
WI-38 cells [3] = settings: for No H2O2 stress treatment, at 10 uM (fold change): normalized ATP measurement; for Assay 1: H2O2-resistant: YES/NO, if NO, possibly due to repeated freezing/thawing of stocks
[4] = read-out: Experiment 1, H2A.X-P DNA damage foci staining (no H2O2 stress treatment), at 10 uM
[5] = read-out: Experiment 2, H2A.X-P DNA damage foci staining (no H2O2 stress treatment), at 10 uM
[6] = read-out: Experiment 2, H2A.X-P DNA damage foci staining (under H2O2 stress treatment), at 10 uM
[7] = read-out: Experiment 2, TP53BP1-P DNA damage foci staining (no H2O2 stress treatment), at 10 uM
[8] = read-out: Experiment 2, TP53BP1-P DNA damage foci staining (under H2O2 stress treatment), at 10 uM
[9] = in liquid, wild type, with FuDR, 1.0 × 10^9 bacteria/ml, read-out: relative change of mean lifespan vs control, Trial 1
[10] = in liquid, wild type, with FuDR, 2.5 × 10^9 bacteria/ml, read-out: relative change of mean lifespan vs control, Trial 2
[11] = on plate, CF512 temperature-sensitive sterile animals, without FuDR, 2.0 × 10^10 bacteria/ml, read-out: relative change of mean lifespan vs control, Trial 3
[12] = Assay 2(z), 1.0 × 10^9 bacteria/ml, wild type + FuDR (2012 July), read-out: Lifespan assay in liquid
[13] = Assay 3(aa), 2.5 × 10^9 bacteria/ml, wild type + FuDR, read-out: Lifespan assay in liquid
[14] = Assay 4(ab), 2.0 × 10^10 bacteria/ml, CF512 worms, no FuDR, read-out: Lifespan assay on plates
[15] = Batch 1, day-0 luminescence = 320956 ± 24708
[16] = WI-38 cells, 10 μM, (*) = compromised ability to protect cells from H2O2, could be due to stability issue
[17] = asterisks indicate the loss of the ability to protect cells from H2O2 over time
[18] = derived from dose response curves, 0.6-20 uM, H2O2-resistance of WI-38 cells
[19] = read-out: Est. ED50, dose response 0.6-20 μM, H2O2-resistance
[20] = Batch 2, day-0 luminescence = 229312 ± 17487

SMILES	activity at 10 µM [1, 4]	activity at 10 µM [1, 5]	activity at 10 µM [1, 6]	activity at 10 µM [1, 7]	activity at 10 µM [1, 8]	P = Potential DNA-damaging [1]	R = Potential DNA damaging [1]	ILS at 60 µM (C. elegans; [9])	ILS at 60 µM (C. elegans; [10])	ILS at 60 µM (C. elegans; [11])	ILS at 66 µM (C. elegans; [12])	ILS at 66 µM (C. elegans; [13])	ILS at 66 µM (C. elegans; [14])	O = Life span- extending scores in worms (C. elegans)	M = Lifespan-extending scores in worms (C. elegans)	O = Potential toxicity (WI-38 cells [2]; human, 5 days)	Q = Potential toxicity (WI-38 cells [2]; human, 5 days)	I = FOXO3-dependency for H2O2-resistance (FOXO3; score)	I = FOXO3-dependency for H2O2-resistance (FOXO3; summary score)	H2O2-resistant (WI-38 cells [3]; [16])	also measured
NS(=O)(=O)c1ccc(NC(=O)c2ccc([N+](=O)[O-])o2)cc1 [Gr-1A]	196%	223%	179%	411%	653%	1	1	-1.3%	0.2%	14.2%	-1.3%	0.2%	14.2%	0	0	0	0	0	0	YES	Luminescence signal for ATP measurement, day-1 Average (WI-38 cells [2]; [15]): 477461; Luminescence signal for ATP measurement, day-2 Average (WI-38 cells [2]; [15]): 610735; Luminescence signal for ATP measurement, day-3 Average (WI-38 cells [2]; [15]): 739676; Luminescence signal for ATP measurement, day-4 Average (WI-38 cells [2]; [15]): 878508; Luminescence signal for ATP measurement, day-5 Average (WI-38 cells [2]; [15]): 943836; viability at 10 µM (WI-38 cells [2]; Batch 1): 91.9%; Reduction of ATP content after 5 days of continuous incubation (WI-38 cells [2]; human, 5 days): more than 40%; FOXO3-dependency for H2O2-resistance (experiment 3) (FOXO3; 10 uM, with & without H2O2, FOXO3 knockdown in WI-38 cells, YES = resistance reduced by at least 50%, partial = 25% to 50%): No; FOXO3-dependency for H2O2-resistance (experiment 1 & 2) (FOXO3; 10 uM, with H2O2, FOXO3 knockdown in WI-38 cells, YES = resistance reduced by at least 50%, partial = 25% to 50%): No; No H2O2 stress treatment, at 10 uM (fold change) (WI-38 cells [3]; WI-38 cells): 0.72 fold change; Assay 1: H2O2-resistant (WI-38 cells [3]): YES; H2O2-resistant (WI-38 cells [3]; [17]): YES; EC50 (WI-38 cells [3]; [18]): 6 µM; EC50 (WI-38 cells [3]; [19]): 2.53 µM
Cc1ccc(S(=O)(=O)Nc2cccc3cccnc23)cc1 [Gr-3B]	81.9%	228%	130%	244%	66.3%	0	0	13.7%	12.5%	8.1%	13.7%	12.5%	8.1%	2 (2 for observed in more than 2 trials)	2 (2 for observed in more than 2 trials)	0	1	0	0	YES	Extension of C. elegans' lifespan (qualitative) (C. elegans; in at least 3 to 4 trials, group range ~10% to ~50%): could extend animal's lifespan; Luminescence signal for ATP measurement, day-1 Average (WI-38 cells [2]; [20]): 184710; Luminescence signal for ATP measurement, day-2 Average (WI-38 cells [2]; [20]): 110226; Luminescence signal for ATP measurement, day-3 Average (WI-38 cells [2]; [20]): 109008; Luminescence signal for ATP measurement, day-4 Average (WI-38 cells [2]; [20]): 52193; Luminescence signal for ATP measurement, day-5 Average (WI-38 cells [2]; [20]): 63138; viability at 10 µM (WI-38 cells [2]; Batch 2): 11.4%; No H2O2 stress treatment, at 10 uM (fold change) (WI-38 cells [3]; WI-38 cells): 0.90 fold change; H2O2-resistant (WI-38 cells [3]; [17]): YES; EC50 (WI-38 cells [3]; [18]): 8.5 µM; EC50 (WI-38 cells [3]; [19]): 4.24 µM
CNC(=O)/C(C#N)=C/c1c(Oc2ccc(C(C)(C)C)cc2)nc2ccccn2c1=O [Gr-5D]	94.1%	75%	112%	145%	480%	0	0	29.5%	5.8%	-5.3%	29.5%	5.8%	-5.3%	0	0	0	0	0	0	YES (*)	Luminescence signal for ATP measurement, day-1 Average (WI-38 cells [2]; [15]): 498641; Luminescence signal for ATP measurement, day-2 Average (WI-38 cells [2]; [15]): 763806; Luminescence signal for ATP measurement, day-3 Average (WI-38 cells [2]; [15]): 920681; Luminescence signal for ATP measurement, day-4 Average (WI-38 cells [2]; [15]): 1052285; Luminescence signal for ATP measurement, day-5 Average (WI-38 cells [2]; [15]): 1110868; viability at 10 µM (WI-38 cells [2]; Batch 1): 108%; No H2O2 stress treatment, at 10 uM (fold change) (WI-38 cells [3]; WI-38 cells): 1.14 fold change; Assay 1: H2O2-resistant (WI-38 cells [3]): YES; H2O2-resistant (WI-38 cells [3]; [17]): YES (*); EC50 (WI-38 cells [3]; [19]): 18.7 µM
CCc1ccccc1NC(=O)c1ccc([N+](=O)[O-])o1 [Gr-1C]	217%	311%	178%	375%	552%	1	1	14.4%	1.7%	14.7%	14.4%	1.7%	14.7%	1 (1 for lifespan extension observed in 2 trials)	1 (1 for lifespan extension observed in 2 trials)	1	0	0	0	YES	Luminescence signal for ATP measurement, day-1 Average (WI-38 cells [2]; [15]): 421913; Luminescence signal for ATP measurement, day-2 Average (WI-38 cells [2]; [15]): 545683; Luminescence signal for ATP measurement, day-3 Average (WI-38 cells [2]; [15]): 662368; Luminescence signal for ATP measurement, day-4 Average (WI-38 cells [2]; [15]): 875881; Luminescence signal for ATP measurement, day-5 Average (WI-38 cells [2]; [15]): 819655; viability at 10 µM (WI-38 cells [2]; Batch 1): 79.8%; No H2O2 stress treatment, at 10 uM (fold change) (WI-38 cells [3]; WI-38 cells): 0.81 fold change; Assay 1: H2O2-resistant (WI-38 cells [3]): YES; H2O2-resistant (WI-38 cells [3]; [17]): YES; EC50 (WI-38 cells [3]; [18]): 8 µM; EC50 (WI-38 cells [3]; [19]): 2.66 µM
